Laboratory results published in ChEMBL document CHEMBL1821579, “Discovery of amide replacements that improve activity and metabolic stability of a bis-amide smoothened antagonist hit” (Bioorg Med Chem Lett, 2011).
Active and inactive are the calls of the source. The calls are words filed in the database; no cut-off is given here.

Experiments:
[1] = molecular target: Protein smoothened (Homo sapiens, UniProt Q99835); assay: Antagonist activity at human SMO expressed in HEPM cells assessed as reduction of GLI expression after 24 hrs by Quantigene assay; format: functional, cell-based
Sequence of Protein smoothened (Homo sapiens, UniProt Q99835) (Q99835 whole entry): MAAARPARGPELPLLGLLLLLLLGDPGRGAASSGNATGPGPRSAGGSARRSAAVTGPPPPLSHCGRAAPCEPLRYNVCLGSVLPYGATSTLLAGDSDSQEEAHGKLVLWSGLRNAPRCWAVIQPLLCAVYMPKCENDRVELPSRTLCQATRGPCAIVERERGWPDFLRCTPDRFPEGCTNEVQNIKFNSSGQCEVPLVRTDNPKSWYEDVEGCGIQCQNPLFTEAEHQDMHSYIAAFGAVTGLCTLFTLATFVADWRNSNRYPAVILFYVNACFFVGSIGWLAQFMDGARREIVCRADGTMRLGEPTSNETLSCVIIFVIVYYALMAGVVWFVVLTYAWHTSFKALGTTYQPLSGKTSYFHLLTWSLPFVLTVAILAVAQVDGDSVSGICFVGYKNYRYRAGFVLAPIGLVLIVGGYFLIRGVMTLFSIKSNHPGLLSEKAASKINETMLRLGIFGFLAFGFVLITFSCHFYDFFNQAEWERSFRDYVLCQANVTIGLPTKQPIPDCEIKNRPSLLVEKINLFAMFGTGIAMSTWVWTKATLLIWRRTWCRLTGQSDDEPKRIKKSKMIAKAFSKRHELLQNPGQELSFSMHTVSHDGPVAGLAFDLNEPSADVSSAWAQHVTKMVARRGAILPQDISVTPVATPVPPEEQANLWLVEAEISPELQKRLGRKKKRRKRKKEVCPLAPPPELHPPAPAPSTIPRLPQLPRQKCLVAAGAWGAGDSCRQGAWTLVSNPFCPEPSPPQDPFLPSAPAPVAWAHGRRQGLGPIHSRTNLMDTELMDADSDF

[2] = Metabolic stability in rat hepatocyte assessed as compound remaining at 30 mins; format: ADME, cell-based; settings: hepatocytes, read-out: Stability
[3] = Clearance in rat liver microsomes assessed as compound metabolized after 30 mins; format: ADME, Microsome; settings: read-out: Activity
[4] = Clearance in rat at 0.5 mg/kg, iv; format: ADME, organism-based; parameters: dose 0.5 mg/kg, route intravenous; settings: in vivo
[5] = Oral bioavailability in rat at 5 mg/kg; format: ADME, organism-based; settings: in vivo
[6] = molecular target: Protein smoothened (Rattus norvegicus) (UniProt P97698); assay: Antagonist activity at SMO in rat hepatocyte; format: functional, cell-based
Sequence of Protein smoothened (Rattus norvegicus) (P97698 whole entry): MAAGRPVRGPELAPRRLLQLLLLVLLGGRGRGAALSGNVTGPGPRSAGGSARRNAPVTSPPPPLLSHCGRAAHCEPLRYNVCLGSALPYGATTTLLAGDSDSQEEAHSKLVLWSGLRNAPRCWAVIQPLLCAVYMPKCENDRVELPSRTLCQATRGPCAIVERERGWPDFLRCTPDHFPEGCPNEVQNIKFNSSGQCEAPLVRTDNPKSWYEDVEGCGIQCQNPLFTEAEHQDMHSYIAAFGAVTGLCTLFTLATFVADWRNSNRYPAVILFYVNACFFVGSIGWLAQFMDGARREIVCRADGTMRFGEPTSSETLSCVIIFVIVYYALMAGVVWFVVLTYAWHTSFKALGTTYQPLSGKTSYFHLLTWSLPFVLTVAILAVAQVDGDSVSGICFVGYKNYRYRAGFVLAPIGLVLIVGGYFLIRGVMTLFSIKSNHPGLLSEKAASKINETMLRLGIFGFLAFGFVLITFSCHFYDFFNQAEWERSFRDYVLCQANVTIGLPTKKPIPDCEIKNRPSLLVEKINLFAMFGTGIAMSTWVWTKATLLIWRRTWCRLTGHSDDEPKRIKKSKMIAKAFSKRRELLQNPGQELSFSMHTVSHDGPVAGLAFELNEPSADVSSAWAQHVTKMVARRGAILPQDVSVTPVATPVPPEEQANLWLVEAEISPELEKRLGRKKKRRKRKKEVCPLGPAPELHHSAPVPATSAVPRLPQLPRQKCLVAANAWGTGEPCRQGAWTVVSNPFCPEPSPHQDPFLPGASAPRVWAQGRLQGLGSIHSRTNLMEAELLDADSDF

[7] = molecular target: Protein smoothened (Mus musculus, UniProt P56726); assay: Antagonist activity at mouse SMO expressed in NIH/3T3 cells transfected with Gli-dependent luciferase-reporter after 15 hrs by luciferase reporter gene assay using luminometer; format: functional, cell-based
Sequence of Protein smoothened (Mus musculus, UniProt P56726) (P56726 whole entry): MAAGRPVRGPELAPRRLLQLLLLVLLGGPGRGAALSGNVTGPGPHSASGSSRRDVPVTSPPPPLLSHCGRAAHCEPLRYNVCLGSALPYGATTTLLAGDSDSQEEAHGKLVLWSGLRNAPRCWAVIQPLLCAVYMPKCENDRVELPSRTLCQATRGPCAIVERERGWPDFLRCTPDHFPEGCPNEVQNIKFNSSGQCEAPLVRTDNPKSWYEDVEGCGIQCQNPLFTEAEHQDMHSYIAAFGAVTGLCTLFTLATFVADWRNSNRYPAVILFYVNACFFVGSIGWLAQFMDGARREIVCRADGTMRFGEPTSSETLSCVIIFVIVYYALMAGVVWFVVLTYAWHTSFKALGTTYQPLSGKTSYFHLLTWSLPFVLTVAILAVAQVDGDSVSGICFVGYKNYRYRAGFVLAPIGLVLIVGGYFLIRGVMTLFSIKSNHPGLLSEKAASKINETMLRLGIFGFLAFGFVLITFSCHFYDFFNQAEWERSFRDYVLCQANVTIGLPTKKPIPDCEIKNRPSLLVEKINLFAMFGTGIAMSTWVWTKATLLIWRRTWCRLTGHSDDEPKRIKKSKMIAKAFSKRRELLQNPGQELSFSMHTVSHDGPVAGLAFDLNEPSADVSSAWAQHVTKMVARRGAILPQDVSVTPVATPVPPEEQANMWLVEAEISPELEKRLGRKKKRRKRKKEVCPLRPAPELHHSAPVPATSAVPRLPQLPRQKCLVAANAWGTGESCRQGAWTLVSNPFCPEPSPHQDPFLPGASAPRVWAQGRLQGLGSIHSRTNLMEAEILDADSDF

| IC50 [1] | SMILES | other results |
| --- | --- | --- |
| 37 nM | O=C(Nc1ccc(-c2nccc(-c3ccccc3)n2)cc1)c1ccccc1Cl |  |
| 48 nM | O=C(Nc1ccc(-c2cc(-c3ccccc3)ncn2)cc1)c1ccccc1Cl |  |
| 6.4 nM | O=C(Nc1ccc(-c2cccc(-c3ccccc3)c2)cc1)c1ccccc1Cl |  |
| 93 nM | O=C(Nc1ccc(-c2ccnc(-c3ccccc3)c2)cc1)c1ccccc1Cl |  |
| 93 nM | O=C(Nc1ccc(-c2coc(-c3ccccc3)n2)cc1)c1ccccc1Cl |  |
| 27 nM | O=C(Nc1ccc(-c2ccnc(-c3ccccc3)n2)cc1)c1ccccc1Cl |  |
| 109 nM | O=C(Nc1ccc(-c2csc(-c3ccccc3)n2)cc1)c1ccccc1Cl |  |
| 33 nM | O=C(Nc1ccc(-c2cccc(-c3ccccc3)n2)cc1)c1ccccc1Cl |  |
| 7.2 nM | O=C(Nc1ccc(-c2cc(-c3ccccc3)ccn2)cc1)c1ccccc1Cl | metabolised at 0.5 h [3]: 41%; clearance [4]: 2.83 mL/min/kg; bioavailability [5]: 27%; IC50 [7]: 26 nM |
| 63 nM | O=C(Nc1ccc(-c2nc(-c3ccccc3)co2)cc1)c1ccccc1Cl |  |
| 28 nM | O=C(Nc1ccc(-c2cncc(-c3ccccc3)c2)cc1)c1ccccc1Cl |  |
| 27 nM | O=C(Nc1ccc(-c2nc(-c3ccccc3)cs2)cc1)c1ccccc1Cl |  |

Continued, compound first:

| SMILES | IC50 [1] | other results |
| --- | --- | --- |
| O=C(Nc1ccc(-c2ncc(-c3ccccc3)o2)cc1)c1ccccc1Cl | 40 nM |  |
| O=C(Nc1ccc(-c2nnc(-c3ccccc3)o2)cc1)c1ccccc1Cl | 89 nM |  |
| O=C(Nc1ccc(/C=C/c2ccccc2)cc1)c1ccccc1Cl | 49 nM |  |
| Cc1oc(-c2ccc(NC(=O)c3ccccc3Cl)cc2)nc1-c1ccccc1 | 44 nM |  |
| O=C(Cc1ccc(NC(=O)c2ccccc2Cl)cc1)c1ccccc1 | 79 nM |  |
| O=C(Nc1ccc(CC(O)c2ccccc2)cc1)c1ccccc1Cl (racemic) | 14 nM |  |
| O=C(Nc1ccc(NC(=O)c2ccccc2Cl)cc1)c1ccccc1 | 13 nM | remaining at 0.5 h [2]: 3%; metabolised at 0.5 h [3]: < 10%; clearance [4]: 23.3 mL/min/kg; bioavailability [5]: 12% |
| CC(=O)Nc1ccc(NC(=O)c2ccccc2Cl)cc1 |  | inhibition [6]: inactive |
| O=C(Nc1ccc(-c2nc(-c3ccccc3)c(C(F)(F)F)o2)cc1)c1ccccc1Cl | 31 nM | metabolised at 0.5 h [3]: < 10%; clearance [4]: 3.83 mL/min/kg; bioavailability [5]: 47%; IC50 [7]: 17 nM |
